The target of one data set is C. elegans Slo-1a (Caenorhabditis elegans, UniProt Q95V25). The data set can be described thus: In vitro assay 1: C. elegans Slo-1a, action at a recombinant C. elegans CHO cell line (membrane potential measurement). The note with it: for pE50: CHO cells expressing C. elegans Slo-1a, voltage sensitive dye, FLIPR Tetra, negative decadic logarithm of EC50.
Data set [1] deals with Dirofilaria immitis microfilariae. Nature of the data set: In vitro assay 3: Dirofilaria immitis microfilariae (DIROIM L1), motility. The note with it: 72 h, reduction of motility vs negative control, 72 h incubation.
The nature of data set [2]: log P by HPLC on reversed phase columns (Method L0; [a] acidic, [b] neutral range). The note with it: for logP (Method L0) [a]: HPLC on reversed phase columns, Method L0, [a] acidic range; for log P: HPLC on reversed phase columns (Method L0), last column of Table 1, column head not shown.

This is an account of results in US11001590B2, “Pyrazolopyrimidine derivatives” (BAYER ANIMAL HEALTH GMBH, priority 2016, dated 2021).

C. elegans Slo-1a, sequence (Q95V25 whole entry): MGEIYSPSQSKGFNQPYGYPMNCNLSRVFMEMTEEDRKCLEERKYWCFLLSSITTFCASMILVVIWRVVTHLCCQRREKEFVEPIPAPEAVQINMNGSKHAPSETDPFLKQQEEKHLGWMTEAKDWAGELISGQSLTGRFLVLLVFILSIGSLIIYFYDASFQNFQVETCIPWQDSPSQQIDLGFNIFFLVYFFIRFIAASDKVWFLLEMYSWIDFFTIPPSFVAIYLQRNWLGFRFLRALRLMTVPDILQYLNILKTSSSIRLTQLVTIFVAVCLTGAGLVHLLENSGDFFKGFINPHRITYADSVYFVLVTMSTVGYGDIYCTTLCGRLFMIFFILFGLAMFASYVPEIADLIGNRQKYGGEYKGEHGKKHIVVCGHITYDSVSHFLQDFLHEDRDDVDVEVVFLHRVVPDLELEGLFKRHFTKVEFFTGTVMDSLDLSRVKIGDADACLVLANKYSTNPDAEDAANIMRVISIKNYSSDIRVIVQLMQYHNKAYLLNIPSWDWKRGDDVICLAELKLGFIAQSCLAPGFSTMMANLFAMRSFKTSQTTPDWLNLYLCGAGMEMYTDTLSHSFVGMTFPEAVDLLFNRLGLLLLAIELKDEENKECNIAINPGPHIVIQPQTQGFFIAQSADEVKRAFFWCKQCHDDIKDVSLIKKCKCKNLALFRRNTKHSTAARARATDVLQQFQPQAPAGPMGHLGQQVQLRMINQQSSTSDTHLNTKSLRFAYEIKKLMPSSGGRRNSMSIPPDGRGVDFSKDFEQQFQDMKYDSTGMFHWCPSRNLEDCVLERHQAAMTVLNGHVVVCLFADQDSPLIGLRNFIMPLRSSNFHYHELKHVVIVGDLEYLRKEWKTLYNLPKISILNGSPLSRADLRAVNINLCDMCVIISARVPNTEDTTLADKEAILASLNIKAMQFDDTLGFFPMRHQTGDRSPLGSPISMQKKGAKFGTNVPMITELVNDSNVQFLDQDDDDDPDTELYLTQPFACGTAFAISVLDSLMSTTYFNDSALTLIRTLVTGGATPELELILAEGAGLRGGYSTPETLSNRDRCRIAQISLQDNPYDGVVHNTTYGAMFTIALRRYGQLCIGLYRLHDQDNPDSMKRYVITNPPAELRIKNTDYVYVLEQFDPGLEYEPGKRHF

As to `Cc1nn2c(C3CC3)c(C(=O)N[C@H]3CCc4ccccc43)cnc2c1-c1cccc(N2CC(F)(F)C2)c1` [Example 441], the results for the EC50 (at C. elegans Slo-1a; in data set [1]) were 0.01 µM and < 1 mg/L, respectively. In data set [2], the chromatographic logP (commonly a lipophilicity value derived from retention on a column) stood at 4.16.
As to `CC(C)c1c(C(=O)N[C@H]2CCOc3ccccc32)cnc2c(-c3c(F)cccc3F)c(C(F)(F)F)nn12` [Example 139], the values for the EC50 (at C. elegans Slo-1a; in data set [1]) were 0.126 µM and < 0.1 mg/L, respectively. Further, the chromatographic logP in data set [2] amounted to 4.56.
Take `Cc1nc2c(-c3cccc(Cl)c3Cl)c(C)nn2c(C)c1C(=O)N[C@H]1CCOc2ccccc21` [Example 267]: the concentration for a half-maximal effect (EC50) (as a rule, the concentration at which the effect is half-maximal) on C. elegans Slo-1a is 0.158 µM; in data set [1] it was < 10 mg/L. In data set [2], this compound gave a chromatographic logP of 3.86.
For the compound `CC(C)c1c(C(=O)N[C@H]2CCc3ccccc32)cnc2c(-c3cccc(N(C)C)c3)c(C3CC3)nn12` [Example 407], the concentration for a half-maximal effect (EC50) on C. elegans Slo-1a was 0.126 µM; in data set [1], < 10 mg/L. Moreover, the chromatographic logP in data set [2] worked out at 4.81.
In the case of `Cc1nn2c(C(C)C)c(C(=O)N[C@H]3CCOc4ccccc43)cnc2c1-c1ccc2cc[nH]c2c1` [Example 243], the figures for the EC50 (at C. elegans Slo-1a; in data set [1]) were 0.631 µM and < 10 mg/L, respectively. The compound also returned a chromatographic logP in data set [2] of 3.76.
Taken in the same sequence, the figures for `Cc1nn2c(C(C)C)c(C(=O)N[C@H]3CCc4ccccc43)cnc2c1-c1cccc(CN2CCOCC2)c1` [Example 354] were 0.398 µM, < 10 mg/L and 2.01.
On the same counts, the results for `CC(C)c1c(C(=O)N[C@H]2CCOc3ccccc32)cnc2c(-c3cc(Cl)cc(Cl)c3)c(S(=O)(=O)C(C)C)nn12` [Example 217] are 0.398 µM, < 10 mg/L and 4.57.
On to `CCN(C)c1cccc(-c2c(C)nn3c(C(C)C)c(C(=O)N[C@H]4CCc5ccccc54)cnc23)c1` [Example 373], for which the concentration for a half-maximal effect (EC50) on C. elegans Slo-1a was 0.0398 µM; in data set [1], < 1 mg/L. This compound displayed a chromatographic logP in data set [2] of 3.48.
For `Cc1nn2c(C(C)C)c(C(=O)N[C@H]3CCc4ccccc43)cnc2c1-c1ccc(OC(F)(F)F)cc1` [Example 331], the EC50 is 0.251 µM at C. elegans Slo-1a and < 10 mg/L in data set [1]. Further, in data set [2], the chromatographic logP was found to be 5.41.
Taken in the same sequence, the figures for `Cc1nn2c(C(C)C)c(C(=O)N[C@H]3CCOc4ccccc43)cnc2c1-c1cccc(N2CC(C#N)C2)c1` [Example 444] were 0.0158 µM, < 10 mg/L and 3.91.
Taken in the same sequence, the figures for `Cc1nn2c(C(C)C)c(C(=O)N[C@H]3CCc4ccccc43)cnc2c1-c1ccccc1` [Example 174] were 0.0158 µM, < 0.1 mg/L and 4.59.
Taken in the same sequence, the figures for `Cc1nn2c(C(C)C)c(C(=O)N[C@H]3CCOc4ccccc43)cnc2c1-c1ccc2c(c1)NCC2` [Example 248] were 0.0501 µM, < 10 mg/L and 2.2.
For the compound `Cc1nn2c(C(C)C)c(C(=O)N[C@H]3CCOc4ccccc43)cnc2c1-c1ccc2c(c1)CC(=O)N2` [Example 252], the 50% effective concentration (EC50) was 1.26 µM at C. elegans Slo-1a and < 10 mg/L in data set [1]. The same compound registered a chromatographic logP in data set [2] of 2.87.
Taken in the same sequence, the figures for `Cc1nn2c(C3CC3)c(C(=O)N[C@H]3CCc4ccccc43)cnc2c1-c1cccc(N2CC(C#N)C2)c1` [Example 460] were 0.0398 µM, < 10 mg/L and 3.44.
Taken in the same sequence, the figures for `Cc1nn2c(C(C)C)c(C(=O)N[C@H]3CCOc4ccccc43)cnc2c1-c1cnc(F)c(F)c1` [Example 221] were 0.01 µM, < 1 mg/L and 4.13.
Regarding `CC(C)c1c(C(=O)N[C@H]2CCc3ccccc32)cnc2c(-c3cncc(F)c3)c(C(F)(F)F)nn12` [Example 155], the EC50 at C. elegans Slo-1a was 3.16 µM; in data set [1], < 10 mg/L. This compound gave a chromatographic logP in data set [2] of 4.25.
On the same counts, the results for `CSc1nn2c(C(C)C)c(C(=O)N[C@H]3CCOc4ccccc43)cnc2c1-c1cc(Cl)cc(Cl)c1` [Example 202] are 0.0251 µM, < 10 mg/L and 6.35.
In the case of `Cc1nn2cc(C(=O)N[C@H]3CCc4ccccc43)cnc2c1-c1ccccc1Cl` [Example 62], the EC50 on C. elegans Slo-1a was 2 µM. In addition, the chromatographic logP in data set [2] worked out at 3.52.
For `Cc1nn2c(C(C)C)c(C(=O)N[C@H]3CCOc4ccc(Cl)cc43)cnc2c1-c1cc(F)ccc1F` [Example 114], the pE50 on C. elegans Slo-1a is 6.9. Besides, in data set [2], the “logP (Method L0) [a]” value came to 4.82.
As for `Cc1nn2c(C)c(C(=O)N[C@H]3CCc4ccccc43)cnc2c1-c1cccc(Cl)c1` [Example 59], on C. elegans Slo-1a, the concentration for a half-maximal effect (EC50) is 0.0794 µM. In addition, the chromatographic logP in data set [2] is 4.12.
Turning to `Cc1nn2c(N(C)CC[S+](C)[O-])c(C(=O)NC3CCOc4ccccc43)cnc2c1-c1cc(Cl)cc(Cl)c1` (mixture of isomers) [Example 540], the pE50 on C. elegans Slo-1a is 7.7. In data set [2], the log P (in general, the decadic logarithm of the partition coefficient of the neutral form, usually between octanol and water) was 2.88.
For `Cc1nn2c(C(C)C)c(C(=O)N[C@H]3CCc4ccccc43)cnc2c1-c1cccc(C#N)c1` [Example 291], the EC50 on C. elegans Slo-1a was 0.0501 µM. In data set [2], the chromatographic logP turned out to be 4.31.
Take `Cc1nn2c(C3CC3)c(C(=O)N[C@H]3CCOc4ccccc43)cnc2c1-c1cnn(CC(F)(F)F)c1` [Example 468]: the pE50 at C. elegans Slo-1a is recorded as 7.8. The “log P” value in data set [2] was determined as 2.95.
Taken in the same sequence, the figures for `Cc1nn2c(N3CCOCC3)c(C(=O)N[C@H]3CCOc4ccccc43)cnc2c1-c1cccc(C(F)(F)F)c1F` [Example 530] were 9.0 and 3.99.
Regarding `Cc1nn2c(CN(C)C)c(C(=O)N[C@H]3CCc4ccccc43)cnc2c1-c1cccc(Cl)c1Cl` [Example 522], at C. elegans Slo-1a, the pE50 is given as 7.8. In addition, the “log P” value in data set [2] came to 2.08.
Regarding `Cc1nn2c(C(C)C)c(C(=O)N[C@H]3CCOc4ccc(Cl)cc43)cnc2c1-c1cccc(Cl)c1` [Example 105], the pE50 on C. elegans Slo-1a was determined as 6.8. In addition, the “logP (Method L0) [a]” value in data set [2] was determined as 5.36.
In the case of `Cc1nn2c(C)c(C(=O)N[C@H]3CCCc4ccccc43)cnc2c1-c1cccc(Cl)c1` [Example 46], the EC50 at C. elegans Slo-1a is 0.251 µM. The compound also registered a chromatographic logP in data set [2] of 4.42.
Consider `Cc1c(C(=O)N[C@H]2CCc3ccccc32)cnc2c(-c3ccccc3Cl)c(C(F)(F)F)nn12` [Example 81], for which the EC50 at C. elegans Slo-1a is 0.398 µM. The same compound gave a chromatographic logP in data set [2] of 4.24.
Regarding `COCc1c(C(=O)N[C@H]2CCc3ccccc32)cnc2c(-c3cccc(C(F)(F)F)c3)c(C)nn12` [Example 305], on C. elegans Slo-1a, the EC50 was 0.0631 µM. The compound also came in with a chromatographic logP in data set [2] of 4.52.
Taken in the same sequence, the figures for `Cc1nn2c(C(C)C)c(C(=O)N[C@H]3CCCc4ccccc43)cnc2c1-c1ccc(C(C)C)cc1` [Example 126] were 0.2 µM and 6.01.
On the same counts, the results for `Cc1nn2c(C(C)C)c(C(=O)N[C@H]3CCCc4ccccc43)cnc2c1-c1cc(Cl)cc(C(F)(F)F)c1` [Example 124] are 0.00794 µM and 6.36.
In the case of `Cc1nn2c(C(C)C)c(C(=O)N[C@H]3CCOc4ccccc43)cnc2c1-c1ccc(C(F)(F)F)c(F)c1` [Example 187], the pE50 at C. elegans Slo-1a was 7.9. The “logP (Method L0) [a]” value in data set [2] amounted to 4.85.
In the case of `Cc1nn2c(C)c(C(=O)N[C@H]3CCCc4ccccc43)cnc2c1-c1cc(Cl)cc(Cl)c1` [Example 61], on C. elegans Slo-1a, the EC50 was 6.31 µM. The chromatographic logP in data set [2] is 5.29.
Taken in the same sequence, the figures for `Cc1nn2c(C(C)C)c(C(=O)NC3CCCc4ccccc43)cnc2c1-c1cccc(C(F)(F)F)c1` (stereo not drawn) [Example 2] were 0.0316 µM and 5.59.
As to `Cc1nn2c(NC3CC3)c(C(=O)N[C@H]3CCOc4ccccc43)cnc2c1-c1cc(Cl)cc(Cl)c1` [Example 542], the pE50 on C. elegans Slo-1a was 6.5. In data set [2], the “log P” value is 5.59.
For the compound `CCOc1cccc(-c2c(C)nn3c(C(C)C)c(C(=O)N[C@H]4CCc5ccccc54)cnc23)c1` [Example 322], on C. elegans Slo-1a, the EC50 was 0.0126 µM. The compound further gave a chromatographic logP in data set [2] of 4.94.
As for `Cc1nn2c(C3CC3)c(C(=O)N[C@H]3CCc4ccccc43)cnc2c1-c1cnn(CC(F)(F)F)c1` [Example 421], the pE50 at C. elegans Slo-1a is 8.1. In data set [2], the “log P” value is on record as 3.17.
In the case of `CC(C)c1c(C(=O)N[C@H]2CCOc3ccccc32)cnc2c(-c3cccc(F)c3F)c(Cl)nn12` [Example 281, 2-Chloro-N—((S)-chroman-4-yl)-3-(2,3-difluorophenyl)-7-isopropylpyrazolo[1,5-a]pyrimidine-6-carboxamide], the EC50 at C. elegans Slo-1a was 0.00501 µM; in data set [1], < 0.1 mg/L.
As for `Cc1nn2c(C(C)C)c(C(=O)NC3CCc4ccccc43)cnc2c1-c1cccc(C(F)(F)F)c1` (stereo not drawn) [Example 1], the EC50 on C. elegans Slo-1a is 0.0398 µM. In data set [2], the chromatographic logP came out at 5.29.
On the same counts, the results for `Cc1nn2c(C(F)F)c(C(=O)N[C@H]3CCc4ccccc43)cnc2c1-c1cccc(C(F)(F)F)c1` [Example 311, (S)-7-(Difluoromethyl)-N-(2,3-dihydro-1H-inden-1-yl)-2-methyl-3-(3-(trifluoromethyl)-phenyl)-pyrazolo[1,5-a]pyrimidine-6-carboxamide] are 0.2 µM and 4.36.
Taken in the same sequence, the figures for `Cc1nn2c(C3CC3)c(C(=O)N[C@H]3CCOc4ccccc43)cnc2c1-c1cc(F)cc(F)c1F` [Example 557] were 0.002 µM and 3.72.
Taken in the same sequence, the figures for `CC(C)c1c(C(=O)N[C@H]2CCc3ccccc32)cnc2c(-c3cccc(C(F)(F)F)c3)c(C(F)(F)F)nn12` [Example 91] were 0.0631 µM and 5.51.
In the case of `Cc1nn2c(C)c(C(=O)N[C@H]3CCc4ccccc43)cnc2c1-c1cc(Cl)cc(Cl)c1` [Example 60], the EC50 at C. elegans Slo-1a is 7.94 µM. Moreover, the chromatographic logP in data set [2] came to 4.96.
On the same counts, the results for `Cc1nn2c(C(C)C)c(C(=O)N[C@H]3CCc4ccccc43)cnc2c1-c1cncnc1` [Example 296] are 7.94 µM and 2.99.
